US12441757B2, “Platform for screening NAD+ binding proteins in a cellular context” (OREGON HEALTH & SCIENCE UNIVERSITY, priority 2020, dated 2025)

Experiments:
PARP-1 = biological target: T1, PARP-1 (Homo sapiens, UniProt P09874); test: In vitro PARP-1 auto-PARylation activity assay; assay type: biochemical; details: dose response; activated DNA, 50 μM NAD^+, anti-ADPr immunoblot
T1 construct: Full length His6-PARP-1 and His6-SUMO-PARP-10 proteins we expressed and purified; His6 (N); made in house
Experimental: FIG. 5. A clickable NAD^+ PAL probe (2-ad-BAD) inhibits PARP-1 and PARP-10 activity in concentration response. (FIG. 5A) 50 nM of recombinant His6-PARP-1 was incubated with 10 μg/mL activated DNA in 100 mM NaCl, 50 mM HEPES [pH 7.4], 4 mM MgCl2, 0.2 mM TCEP for 10 min, then treated with indicated competitor (BAD or the PARP-1 inhibitor NMS-P118) for additional 10 min. 50 μM NAD^+ was then added to initiate auto-PARylation of PARP-1. After 10 min, the reaction was quenched by addition of 4× Laemmli sample buffer and boiling at 95° C. for 5 min. Protein samples were separated by SDS-PAGE, transferred onto nitrocellulose and probed with indicated antibodies. (FIG. 5B) Experiments were performed essentially as in (5A) with the exception that damaged DNA was omitted and the PARP-10 inhibitor ITK6 was used instead of NMS-P118. (FIG. 5C) Densitometry analyses of (5A) and (5B) comparing inhibitory effect of BAD on PARP-1 and PARP-10 auto-ADP-ribosylation. Data are mean±SEM of 3 independent experiments. […]
Samples were run on 10% or 12% acrylamide gels for ˜1 h at 180 V in Mini-PROTEAN Tetra cell (Biorad). […] Band intensities we quantified with ImageJ.

Adenylate kinase 1 (AK1) = biological target: T2, Adenylate kinase 1 (AK1) (Homo sapiens, UniProt P00568); test: Labeling of recombinant AK1 by 2-ad-BAD and nucleotide competition; assay type: binding; details: 150 μM competitor, 0.3 μM 2-ad-BAD
T2 construct: purchased Novus Biologicals NBP1-50855
T2 sequence (P00568 1-194): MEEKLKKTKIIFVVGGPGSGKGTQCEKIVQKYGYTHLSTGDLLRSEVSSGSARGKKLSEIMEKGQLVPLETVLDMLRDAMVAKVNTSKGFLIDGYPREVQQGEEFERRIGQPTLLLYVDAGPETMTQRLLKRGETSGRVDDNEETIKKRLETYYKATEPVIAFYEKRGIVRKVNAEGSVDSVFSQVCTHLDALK
Experimental: FIG. 10. Validation of Adenylate kinase 1 (AK1) as a putative NAD^+/NADH binding protein. […] Recombinant AK1 (500 nM) in 100 mM NaCl, 50 mM HEPES [pH 7.4], 4 mM MgCl2, 0.2 mM TCEP was incubated with 150 μM of indicated competitor molecule for 10 min, followed by 10 min treatment with 0.3 μM 2-ad-BAD. Samples were then subjected to UV light for 5 min, conjugated to TAMRA using Click chemistry, separated by SDS-PAGE and in-gel fluorescence was recorded. […] (FIG. 10B) A differential scanning fluorimetry assay is supportive of NADH as novel AK1 ligand. Recombinant AK1 (0.1 mg/mL) in 100 mM NaCl, 50 mM HEPES, pH 7.4, 4 mM MgCl2, 7.5× SYPRO Orange was tested for thermal stability in the absence or presence of indicated nucleotides at 1 mM. Ordinate reports on the difference of melt peak temperature prompted by indicated treatments. Data are mean±SEM of 3 independent experiments.
Treatments. Recombinant PARP-1 (250 nM), PARP-10 (250 nM) or AK1 (500 nM; Novus Biologicals) were diluted in 100 mM NaCl, 50 mM HEPES [pH 7.4], 4 mM MgCl2, 0.2 mM TCEP. PARP-1 reactions also contained 10 μg/mL of activated calf thymus DNA (Sigma-Aldrich D4522), unless otherwise noted. In experiments reported in FIG. 2, the samples were treated with 0.1 μM 2-ad-BAD or ad-olaparib for 10 min. In competition experiments reported in FIG. 3 and Figure S3, samples were first treated with 150 μM of indicated nucleotides for 10 minute and then with 0.3 μM 2-ad-BAD for additional 10 min. All treatments occurred at RT. Samples were then kept in the dark or irradiated for 5 min in the RPR-100 Photochemical Reactor (Rayonet) equipped with 350 nm lamps at 4° C.
Click Chemistry. 25 μL of each sample was mixed with 5 μL of fatty acid free BSA and SDS to give a final Click reaction concentration of 1 mg/mL and 1%, respectively. Click reactions were started by adding 15 μL of PBS based 3× click reaction mix (final 1× concentrations shown): 100 μM Tris[(1-benzyl-1H-1,2,3triazol-4-yl)methyl]amine (TBTA, Click Chemistry Tools), 1 mM CuSO4, 40 μM tetramethylrhodamine (TAMRA)-azide (Click Chemistry Tools), 1 mM Tris(2-carboxyethyl)phosphine hydrochloride (TCEP, Thermo Fisher) and 5% tert-Butyl alcohol to each sample, and let to proceed for 1 h at RT while gently shaking. Reactions were stopped by adding 4× Laemmli sample buffer and boiling at 95° C. for 5 min.
In gel fluorescence and staining. Samples were loaded to 10 or 12% SDS-polyacrylamide gels and run until the dye front left the gel. In-gel fluorescence was detected with ChemiDoc XRS+ (Biorad) using Rhodamine filter and then the gels were stained with Coomassie blue or Silver using standard protocols.

[1] = tested on: inosine monophosphate dehydrogenase; details: cited from earlier work

T1 sequence (P09874 whole entry): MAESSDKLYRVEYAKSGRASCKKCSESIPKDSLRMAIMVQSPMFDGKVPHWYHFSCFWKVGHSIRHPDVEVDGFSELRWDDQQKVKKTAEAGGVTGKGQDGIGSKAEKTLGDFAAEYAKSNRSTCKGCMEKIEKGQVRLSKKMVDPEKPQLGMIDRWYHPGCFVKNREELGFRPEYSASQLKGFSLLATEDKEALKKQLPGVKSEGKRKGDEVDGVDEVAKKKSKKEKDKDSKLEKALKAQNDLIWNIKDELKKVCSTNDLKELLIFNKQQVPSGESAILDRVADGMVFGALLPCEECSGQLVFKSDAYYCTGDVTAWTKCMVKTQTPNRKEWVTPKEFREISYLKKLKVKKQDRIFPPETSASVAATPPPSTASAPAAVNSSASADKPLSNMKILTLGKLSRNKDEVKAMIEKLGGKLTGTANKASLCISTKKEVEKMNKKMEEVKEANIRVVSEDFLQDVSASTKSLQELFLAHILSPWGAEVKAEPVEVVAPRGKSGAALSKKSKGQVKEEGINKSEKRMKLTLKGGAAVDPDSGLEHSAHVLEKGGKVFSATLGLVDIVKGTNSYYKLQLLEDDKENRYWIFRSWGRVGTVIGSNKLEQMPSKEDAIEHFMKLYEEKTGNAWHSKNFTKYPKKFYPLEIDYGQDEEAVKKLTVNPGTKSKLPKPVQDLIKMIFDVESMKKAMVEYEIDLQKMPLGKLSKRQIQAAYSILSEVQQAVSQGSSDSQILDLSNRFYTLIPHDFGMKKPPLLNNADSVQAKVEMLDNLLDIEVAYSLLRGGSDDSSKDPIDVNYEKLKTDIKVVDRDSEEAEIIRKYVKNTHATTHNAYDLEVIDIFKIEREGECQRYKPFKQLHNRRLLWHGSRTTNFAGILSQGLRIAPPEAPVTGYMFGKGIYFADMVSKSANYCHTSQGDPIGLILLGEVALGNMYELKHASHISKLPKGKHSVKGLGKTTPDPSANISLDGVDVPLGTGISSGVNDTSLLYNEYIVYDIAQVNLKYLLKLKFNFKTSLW

inhibition of PARP-1 auto-PARylation (PARP-1): inhibited | competition of 2-ad-BAD labeling of recombinant AK1 (Adenylate kinase 1 (AK1)): effectively competed
Structure (SMILES): NC(=O)c1cccc([C@@H]2O[C@H](COP(=O)(O)OP(=O)(O)OC[C@H]3O[C@@H](n4cnc5c(N)ncnc54)[C@H](O)[C@@H]3O)[C@@H](O)[C@H]2O)c1 [BAD, benzamide adenine dinucleotide]
binding to and inhibition of NAD^+/NADH binding enzymes (e.g., inosine monophosphate dehydrogenase) [1]: binds to and inhibits
